Laboratory results reported in article PMC6941952, “A homogeneous bioluminescent immunoassay to probe cellular signaling pathway regulation” (Communications Biology, 2020).
Values joined by “and” are separate entries in the source; they are usually repeats but may differ in a detail not shown here. Equal entries are not always repeated.

Tested on: STAT3 Phospho-Tyr705
Assay: NanoBiT pSTAT3 cell-based immunoassay in A431 cells
Design: species or system human
Conditions: for Raw data P-STAT3 / Subtract reagent background P-STAT3 / P-STAT3 (% compared to no inhibitor) / Average P-STAT3 (% compared to no inhibitor): IL-6 10 ng/ml, A431, Fig 6e; for P-STAT3 (% compared to no inhibitor): replicate
Experimental: Prior to NanoBiT Cell-Based Immunoassay, 50,000 cells were seeded in 160 µl of complete growth media per well of a 96-well plate and incubated overnight. […] If necessary, the cell culture media were replaced with serum-free media after the cells were stably adherent on the plate and incubated overnight. To treat cells with activators or inhibitors, medium was changed to 30 µl of medium containing inhibitors. If activation of a specific pathway is needed, the cells were stimulated with 10 µl of medium containing activators. To lyse the cells, 10 µl of lysis buffer containing 0.1% digitonin diluted in 1X immunoassay buffer with protease and phosphatase inhibitors was added and the plates were mixed vigorously for 20 min. Then, 50 µl of an antibody mix containing two primary antibodies against the target protein and NanoBiT detecting antibodies (0.3 µl each per well), diluted in 1X immunoassay buffer was added to the lysates. The plates were incubated at 23 °C for 90 min, followed by the addition of 25 µl of Nano-Glo® reagent consisting of Nano-Glo® Luciferase Assay Substrate mixed with 1X immunoassay buffer. Luminescence was measured using a plate-reading luminometer.
Single dose or dose response inhibitor treatments were performed prior to activation of the pathways as follows. For IκBα, the cells were treated in 30 µl medium with IKK16 or MG132 for 60 min before the addition of 10 µl of DMEM containing appropriate concentration of TNFα. To measure phosphorylation of AKT or STAT3, the corresponding NanoBiT immunoassays were developed with MCF-7 or A431 cells, respectively, according the same scheme used to develop the IκBα assay using the primary antibodies for AKT and STAT3 described in the reagents section. […] Treatment with LY294002 was performed in 30 µl medium and cells were incubated for 60 min before the addition of 1 µM Insulin. To measure STAT3 phosphorylation, A431 cells were incubated overnight in DMEM medium without serum. […] After addition of the stimulators, the cells were incubated for additional times as follows. IκBα phosphorylation and degradation analyses required both time courses and single time points as described in figures. […] The NanoBiT immunoassay protocol was followed as described above.
All 96-well assay plates were read using a GloMax® 96 Microplate Luminometer from Promega. The instrument was set to 0.5 s integration time. In order to obtain net change of signal, the reagent background values (signal from the well containing all reagent except primary antibodies) were subtracted from the sample values. To plot and analyze the data, Microsoft Excel and GraphPad Prism® Software were used. IC50 values were determined by using a nonlinear regression fit to a sigmoidal dose response (variable slope).

[1] = A431 cells, pretreated 1 h, IL-6 10 ng per ml 30 min

Tocilizumab: humanized monoclonal antibody against the IL-6 receptor, approved immunosuppressive drug
IC50, inhibition of Phospho-STAT3 [1]: 0.16 µg/mL
STAT3 phosphorylation / JAK2-STAT3 pathway activation, dose response [1]: inhibited
Raw data P-STAT3 (Actemra 7.62939e-5 ug/ml): 317500 and 271600 and 267300
Subtract reagent background P-STAT3 (Actemra 7.62939e-5 ug/ml): 173175 and 168875 and 219075
P-STAT3 (% compared to no inhibitor) (Actemra 7.62939e-5 ug/ml): 117.6%
Raw data P-STAT3 (Actemra 0.000305176 ug/ml): 341900 and 251000 and 260600
Subtract reagent background P-STAT3 (Actemra 0.000305176 ug/ml): 155645 and 165245 and 246545
P-STAT3 (% compared to no inhibitor) (Actemra 0.000305176 ug/ml): 91.7% and 120.7%
Raw data P-STAT3 (Actemra 0.0012207 ug/ml): 299200 and 250300 and 276700
Subtract reagent background P-STAT3 (Actemra 0.0012207 ug/ml): 153990 and 180390 and 202890
Average P-STAT3 (% compared to no inhibitor) (Actemra 0.00488281 ug/ml): 74.6%
Raw data P-STAT3 (Actemra 0.00488281 ug/ml): 245000 and 216200 and 217700
Subtract reagent background P-STAT3 (Actemra 0.00488281 ug/ml): 121185 and 122685 and 149985
P-STAT3 (% compared to no inhibitor) (Actemra 0.00488281 ug/ml): 82.3% and 68.1% and 73.4%
Average P-STAT3 (% compared to no inhibitor) (Actemra 0.0195312 ug/ml): 41.8%
Raw data P-STAT3 (Actemra 0.0195312 ug/ml): 170000 and 159800 and 165700
Subtract reagent background P-STAT3 (Actemra 0.0195312 ug/ml): 67955 and 73855 and 78155
P-STAT3 (% compared to no inhibitor) (Actemra 0.0195312 ug/ml): 46.2% and 41.0% and 38.2%
Average P-STAT3 (% compared to no inhibitor) (Actemra 0.078125 ug/ml): 19.4%
Raw data P-STAT3 (Actemra 0.078125 ug/ml): 138700 and 129600 and 119000
Subtract reagent background P-STAT3 (Actemra 0.078125 ug/ml): 34580 and 23980 and 43680
P-STAT3 (% compared to no inhibitor) (Actemra 0.078125 ug/ml): 23.5% and 13.3% and 21.4%
Average P-STAT3 (% compared to no inhibitor) (Actemra 0.3125 ug/ml): 9.3%
Raw data P-STAT3 (Actemra 0.3125 ug/ml): 116800 and 110300 and 113700
Subtract reagent background P-STAT3 (Actemra 0.3125 ug/ml): 13270 and 16670 and 19770
P-STAT3 (% compared to no inhibitor) (Actemra 0.3125 ug/ml): 9.0% and 9.3% and 9.7%
Average P-STAT3 (% compared to no inhibitor) (Actemra 5 ug/ml): 7.9%
Raw data P-STAT3 (Actemra 5 ug/ml): 110700 and 107600 and 97720
P-STAT3 (% compared to no inhibitor) (Actemra 5 ug/ml): 10.8% and 3.4% and 9.3%
Average P-STAT3 (% compared to no inhibitor) (Actemra 20 ug/ml): 7.7%
Raw data P-STAT3 (Actemra 20 ug/ml): 106200 and 97590
P-STAT3 (% compared to no inhibitor) (Actemra 20 ug/ml): 11.0% and 4.2% and 7.9%
Average P-STAT3 (% compared to no inhibitor) (Actemra […]): 7.7%
